In US20220041647A1, “ESTRA-1,3,5(10)-TRIENE COMPOUNDS CONDENSED IN POSITION 16(17) WITH A PYRAZOLE RING AS INHIBITORS OF 17-HSD1” (FORENDO PHARMA LTD, priority 2018, published 2022):

How the values were obtained:
[1] = Metabolic stability assay, human hepatocyte incubations; type: in vitro ADME; conditions: compound 1 μM, human hepatocytes, 0-60 min at 37° C.; read-out: Human hepatocytes MetStab T½ min
Method: Compound stock solutions of the invention were prepared in […]. Final concentration of DMSO was adjusted to 1% in all samples. The in vitro metabolic stability of the compounds of the invention was determined for exemplified compounds using human hepatocyte incubations; study compounds at concentration of 1 μM were incubated 0, 10, 20, 40 and 60 min at 37° C. Samples were collected at all time points and compounds were detected by LC-MS/MS analysis. The percent compound remaining is calculated by comparing the peak area of the parent compound at each time point to time zero. In vitro metabolic stability was determined as half life (T1/2), which was determined by regression analysis of the percent parent disappearance vs. time curve.

[2] = target: T1, recombinant human 17β-HSD2 (Homo sapiens, UniProt P37059); test: Inhibition of recombinant human 17β-HSD2 (estradiol to estrone conversion, HPLC/radioactivity); type: biochemical; conditions: compound 1 μM; 50 nM estradiol, 1 mM NADH, 30 min RT
T1 construct: made in house; host or cells: Sd9 (Sf9) insect cells, baculovirus (Bac to Bac Expression System)
T1 sequence (P37059 1-387): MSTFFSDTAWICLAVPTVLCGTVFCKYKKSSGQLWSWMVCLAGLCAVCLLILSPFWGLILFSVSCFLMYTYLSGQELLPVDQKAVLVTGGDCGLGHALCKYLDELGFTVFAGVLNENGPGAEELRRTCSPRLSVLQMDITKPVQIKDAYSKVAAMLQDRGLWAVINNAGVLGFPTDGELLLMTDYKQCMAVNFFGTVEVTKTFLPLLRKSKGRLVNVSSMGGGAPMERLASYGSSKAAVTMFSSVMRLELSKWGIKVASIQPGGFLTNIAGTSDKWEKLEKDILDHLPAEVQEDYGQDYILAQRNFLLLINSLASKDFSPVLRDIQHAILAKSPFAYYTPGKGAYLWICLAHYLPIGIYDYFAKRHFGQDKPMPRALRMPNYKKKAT
In short: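 Membrane extract of Sf9 cells expressing recombinant human 17β-HSD2 (4 μg/ml), in 20 mM KH2PO4 pH 8.5 with 50 nM ^3H-spiked estradiol and 1 mM NADH, 30 min at RT, 1% DMSO. Compound at 1 μM or 0.1 μM; estrone formation by HPLC radioactivity, % inhibition relative to uninhibited conversion.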

[3] = target: T2, recombinant human 17β-HSD1 (Homo sapiens, UniProt P14061); test: Inhibition of recombinant human 17β-HSD1 (estrone to estradiol conversion, HPLC/radioactivity); type: biochemical; conditions: compound 100 nM; 30 nM estrone, 1 mM NADPH, 30 min RT
T2 construct: made in house; host or cells: Sd9 (Sf9) insect cells, baculovirus (Bac to Bac Expression System)
T2 sequence (P14061 1-328): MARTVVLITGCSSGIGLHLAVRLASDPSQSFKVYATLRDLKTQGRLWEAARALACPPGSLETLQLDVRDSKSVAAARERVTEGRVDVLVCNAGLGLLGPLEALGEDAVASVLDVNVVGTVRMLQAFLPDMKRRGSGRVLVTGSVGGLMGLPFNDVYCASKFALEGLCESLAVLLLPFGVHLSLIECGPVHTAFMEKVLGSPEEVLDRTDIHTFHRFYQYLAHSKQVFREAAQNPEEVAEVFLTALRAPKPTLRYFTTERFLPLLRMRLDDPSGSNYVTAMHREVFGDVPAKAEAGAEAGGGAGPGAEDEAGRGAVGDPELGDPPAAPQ
In short: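 Microsomal human 17β-HSD1 from Sf9 baculovirus (1 μg/ml) was incubated 30 min at RT in 20 mM KH2PO4 pH 7.4 with 30 nM ^3H-estrone, 1 mM NADPH and inhibitor at 1 μM or 0.1 μM (1% DMSO). Estrone and estradiol were separated by HPLC with radioactivity detection. % inhibition = 100 − % conversion relative to uninhibited control.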

CN(CC(C)(C)O)C(=O)CC[C@@H]1c2c[nH]nc2[C@@]2(C)CCC3c4cccc(F)c4CCC3C12 (stereo partly drawn) [Compound 243, 3-((8aS,12S)-3-fluoro-8a-methyl-1,2,6b,7,8,8a,10,12,12a,12b-decahydronaphtho[2′,1′:4,5]indeno[1,2-c]pyrazol-12-yl)-N-(2-hydroxy-2-methylpropyl)-N-methylpropanamide]
half-life at 1 μM [1]: 15 min
inhibition at 1 µM [2]: 5%
inhibition at 0.1 µM [3]: 80%
